Some test systems named below: A498 renal; HCC-2998 colon; LOX IMVI melanoma; MALME-3M melanoma; MDA-MB-435; NCI-H23 lung; NCI-H460 lung; PC-3 prostate; RXF 393 renal; SF-295 CNS.
What all share (test): NCI tumour cell line growth inhibition, 48 h

Here are results for seven compounds from PubChem BioAssay (NCI).

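Method: 48-hour compound exposure of cells in 96-well plates, five concentrations, linear interpolation of endpoints. The concentration for 50% growth inhibition is given as GI50. The concentration for full growth arrest is given as TGI.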 Bounds are passed on as bounds.

Turning to `Cc1cc(N(CCCl)CCCl)ccc1C=Nc1cccnc1`, the GI50 in the assay on A498 renal is 0.237 µM; in the assay on HCC-2998 colon it was 16.8 µM; with LOX IMVI melanoma, 12.7 µM; in the assay with MALME-3M melanoma it was 22.4 µM; in the assay with MDA-MB-435, 37.8 µM; in the assay on NCI-H23 lung, 6.93 µM. The GI50 in the assay with NCI-H460 lung is 0.369 µM; with PC-3 prostate, 22.9 µM; in the assay on RXF 393 renal, 11.6 µM; in the assay on SF-295 CNS, 8.68 µM. Also, the TGI in the assay with A498 renal is 0.833 µM; with HCC-2998 colon, 32 µM; with LOX IMVI melanoma, above 100 µM; in the assay on MALME-3M melanoma, above 100 µM; in the assay with MDA-MB-435, above 100 µM; in the assay on NCI-H23 lung it was above 100 µM. Moreover, the TGI is above 47.7 µM with NCI-H460 lung, above 100 µM in the assay on PC-3 prostate, 42.5 µM in the assay on RXF 393 renal and above 95.7 µM with SF-295 CNS.

With `Nc1ccccc1C#C/C=C\C#Cc1ccc(F)cc1F`, the GI50 with A498 renal was 15.8 µM; in the assay on HCC-2998 colon, 2.57 µM; in the assay on LOX IMVI melanoma, 6.41 µM; in the assay with MALME-3M melanoma, 6.11 µM; in the assay on MDA-MB-435, 2.38 µM; with NCI-H23 lung, 13.3 µM. Besides, the GI50 with NCI-H460 lung is 12.9 µM; in the assay with PC-3 prostate it was 10.7 µM; in the assay with RXF 393 renal it was 18.4 µM; with SF-295 CNS it was 7.12 µM. For the same compound, the TGI came out at 31.9 µM with A498 renal; 12.6 µM with HCC-2998 colon; 19.9 µM in the assay with LOX IMVI melanoma; 22.5 µM in the assay with MALME-3M melanoma; 6.19 µM in the assay on MDA-MB-435; 32.2 µM in the assay on NCI-H23 lung. Moreover, the TGI was determined as 28.7 µM in the assay with NCI-H460 lung, 56.5 µM with PC-3 prostate, 43.2 µM with RXF 393 renal and 24.8 µM with SF-295 CNS.

Regarding `O=C(NNc1nc2cc(F)ccc2n2c(CN3CCOCC3)ccc12)c1ccccc1`, the GI50 was 0.495 µM in the assay on A498 renal; 0.569 µM with HCC-2998 colon; 0.119 µM in the assay with LOX IMVI melanoma; 0.379 µM with MALME-3M melanoma; 0.603 µM in the assay with MDA-MB-435; 0.567 µM in the assay on NCI-H23 lung. Also, the GI50 with NCI-H460 lung was 0.0724 µM; in the assay on PC-3 prostate, 0.339 µM; in the assay with RXF 393 renal it was 0.363 µM; with SF-295 CNS, 0.181 µM. Besides, the TGI came to 2.26 µM in the assay with A498 renal; 3.07 µM in the assay with HCC-2998 colon; 1.43 µM in the assay with LOX IMVI melanoma; 1.81 µM in the assay with MALME-3M melanoma; 2.4 µM in the assay with MDA-MB-435; 2.7 µM with NCI-H23 lung. The TGI in the assay with NCI-H460 lung turned out to be 1.32 µM; with PC-3 prostate, 3.05 µM; in the assay with RXF 393 renal, 2.06 µM; in the assay on SF-295 CNS, 1.52 µM.

In the case of `Cc1ccc(NS(=O)(=O)c2ccc(-c3cnc(C4CC4)o3)cc2)cc1`, the GI50 in the assay with A498 renal was 2.05 µM; in the assay on HCC-2998 colon, 10.8 µM; with LOX IMVI melanoma it was 4.88 µM; with MALME-3M melanoma it was 2.48 µM; in the assay on MDA-MB-435, 0.879 µM; in the assay on NCI-H23 lung, 4.1 µM. For the same compound, the GI50 with NCI-H460 lung was 3.91 µM; in the assay with PC-3 prostate, 3.27 µM; in the assay on RXF 393 renal, 2.36 µM; in the assay on SF-295 CNS, 2.66 µM. Further, the TGI in the assay with A498 renal is 6.83 µM; in the assay with HCC-2998 colon, 23.5 µM; with LOX IMVI melanoma, 18.2 µM; in the assay on MALME-3M melanoma it was 17.6 µM; in the assay on MDA-MB-435, 3.94 µM; in the assay on NCI-H23 lung, 17.9 µM. In addition, the TGI in the assay with NCI-H460 lung was 14.9 µM; in the assay with PC-3 prostate it was 16.3 µM; in the assay with RXF 393 renal it was 10.7 µM; in the assay with SF-295 CNS, 12.2 µM.

As to `Brc1c[n+](Cc2ccc3ccccc3c2)cn1Cc1ccc2ccccc2c1`, the GI50 in the assay on A498 renal was 1.88 µM; in the assay with HCC-2998 colon it was 1.46 µM; in the assay on LOX IMVI melanoma, 1.42 µM; in the assay with MALME-3M melanoma it was 1.22 µM; in the assay on MDA-MB-435 it was 1.69 µM; in the assay with NCI-H23 lung, 1.35 µM. Also, the GI50 in the assay on NCI-H460 lung is 1.78 µM; in the assay with PC-3 prostate, 1.54 µM; in the assay on RXF 393 renal, 2.51 µM; with SF-295 CNS, 2.22 µM. Besides, the TGI was determined as 5.09 µM in the assay with A498 renal; 2.84 µM in the assay on HCC-2998 colon; 2.74 µM with LOX IMVI melanoma; 2.71 µM with MALME-3M melanoma; 3.22 µM in the assay with MDA-MB-435; 3.18 µM in the assay on NCI-H23 lung. The TGI in the assay with NCI-H460 lung was 3.57 µM; in the assay with PC-3 prostate, 3.62 µM; in the assay with RXF 393 renal, 6.75 µM; in the assay with SF-295 CNS, 7.28 µM.

Consider `O=S(=O)(Nc1ccc(-c2nc(-c3cccc(OCCN4CCOCC4)c3)c(-c3ccnc(Br)c3)[nH]2)cc1)c1ccccc1`, for which the GI50 is 1.53 µM in the assay on A498 renal; 1.85 µM in the assay on HCC-2998 colon; 1.62 µM with LOX IMVI melanoma; 2.2 µM in the assay on MALME-3M melanoma; 2.93 µM in the assay on MDA-MB-435; 2.43 µM with NCI-H23 lung. Further, the GI50 is 3.45 µM with NCI-H460 lung, 2.4 µM with PC-3 prostate, 2.26 µM in the assay with RXF 393 renal and 1.72 µM in the assay on SF-295 CNS. For the same compound, the TGI was 6.94 µM in the assay on A498 renal; 3.71 µM in the assay with HCC-2998 colon; 3.42 µM in the assay on LOX IMVI melanoma; 56.9 µM in the assay with MALME-3M melanoma; above 100 µM in the assay with MDA-MB-435; 8.71 µM in the assay with NCI-H23 lung. Further, the TGI in the assay with NCI-H460 lung was above 100 µM; in the assay with PC-3 prostate it was 36.6 µM; in the assay with RXF 393 renal, 6.78 µM; in the assay with SF-295 CNS, 4.1 µM.

Turning to `CC1OCC2OC(C)OC(C3C4=C(CC(C)(C)CC4=O)OC4=C3C(=O)CC(C)(C)C4)C2O1` (stereo not given), the TGI with A498 renal, in the assay on HCC-2998 colon, with LOX IMVI melanoma, with MALME-3M melanoma, in the assay on MDA-MB-435 and in the assay with NCI-H23 lung was above 100 µM each time. For the same compound, the TGI in the assay on NCI-H460 lung, with PC-3 prostate, in the assay with RXF 393 renal and in the assay on SF-295 CNS was above 100 µM throughout.
